From US10363239B2, “Method for inhibiting growth of cancer cells” (Pain Therapeutics, Inc., priority 2013, dated 2019)
Read-outs that look alike come from different tables or passages of the source.

Columns and labels:
[1] = biological target: FLNA pentapeptide of SEQ ID NO: 1 (Bn-VAKGL) (Homo sapiens, UniProt P21333); experiment: FITC-NLX-based FLNA screening assay (inhibition of FITC-naloxone binding to Bn-VAKGL on streptavidin plates); conditions: 10 nM FITC-NLX
mu opiate receptor (MOR) = experiment: MOR agonist activity using [35S]GTPγS binding assay in striatal membranes; assay type: biochemical; conditions: for MOR agonist activity ([35S]GTPγS binding), FLNA-Binding Compound as Agonist 1 μM + BFNA: 1 μM compound + 1 μM β-funaltrexamine
Method in brief: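 Striatal membranes (200 μg) were preincubated 5 min at 30 °C in HEPES pH 7.5 with 100 mM NaCl, 1 mM MgCl2 and 0.5 nM [35S]GTPγS, then 5 min more with 0.1–10 μM compound. Gαo was immunoprecipitated and bound radioactivity counted by scintillation.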

[2] = FLNA-binding compound 0.01 μM, read-out: Percent Binding Inhibition
[3] = FLNA-binding compound 0.1 μM, read-out: Percent Binding Inhibition
[4] = FLNA-binding compound 1 μM, read-out: Percent Binding Inhibition
[5] = Series C-1, 0.1 μM compound, relative to DAMGO
[6] = Series C-1, 0.1 μM compound, [35S]GTPγS binding to Gαo, striatal membranes
[7] = Series C-1, 1 μM compound + 1 μM β-FNA
[8] = Series C-1, 1 μM compound + β-FNA, relative to DAMGO + BFNA
[9] = Series C-1, 1 μM compound, relative to DAMGO
[10] = Series C-1, 1 μM compound, [35S]GTPγS binding to Gαo, striatal membranes
[11] = read-out: Percent Binding Inhibition, FLNA-binding compound 0.01 μM
[12] = read-out: Percent Binding Inhibition, FLNA-binding compound 0.1 μM
[13] = read-out: Percent Binding Inhibition, FLNA-binding compound 1 μM
[14] = Series B, 0.1 μM compound, relative to DAMGO
[15] = Series B, 0.1 μM compound, [35S]GTPγS binding to Gαo, striatal membranes
[16] = Series B, 1 μM compound + 1 μM β-FNA
[17] = Series B, 1 μM compound + β-FNA, relative to DAMGO + BFNA
[18] = Series B, 1 μM compound, relative to DAMGO
[19] = Series B, 1 μM compound, [35S]GTPγS binding to Gαo, striatal membranes
[20] = 0.1 μM compound relative to DAMGO
[21] = 1 μM compound + BFNA relative to DAMGO + BFNA
[22] = 1 μM compound relative to DAMGO

Compound	inhibition at 0.01 µM [1, 2] [%]	inhibition at 0.1 µM [1, 3] [%]	inhibition at 1 µM [1, 4] [%]	inhibition at 0.01 µM [1, 11] [%]	inhibition at 0.1 µM [1, 12] [%]	inhibition at 1 µM [1, 13] [%]	% DAMGO (0.1 μM) (mu opiate receptor (MOR); [14]) [%]	MOR agonist activity, percent [35S]GTPγS binding at the stated compound concentration (mu opiate receptor (MOR); [15]) [%]	MOR agonist activity, percent [35S]GTPγS binding at the stated compound concentration (mu opiate receptor (MOR); [16]) [%]	% DAMGO + BFNA (mu opiate receptor (MOR); [17]) [%]	% DAMGO (1 μM) (mu opiate receptor (MOR); [18]) [%]	MOR agonist activity, percent [35S]GTPγS binding at the stated compound concentration (mu opiate receptor (MOR); [19]) [%]	MOR agonist activity ([35S]GTPγS binding), FLNA-Binding Compound as Agonist 0.1 μM (mu opiate receptor (MOR); 0.1 μM compound) [%]	% DAMGO (0.1 μM) (mu opiate receptor (MOR); [20]) [%]	MOR agonist activity ([35S]GTPγS binding), FLNA-Binding Compound as Agonist 1 μM (mu opiate receptor (MOR); 1 μM compound) [%]	MOR agonist activity ([35S]GTPγS binding), FLNA-Binding Compound as Agonist 1 μM + BFNA (mu opiate receptor (MOR)) [%]	% DAMGO + BFNA (mu opiate receptor (MOR); [21]) [%]	% DAMGO (1 μM) (mu opiate receptor (MOR); [22]) [%]	further results
O=C(OCc1ccccc1)c1ccc(S(=O)(=O)N2CCC3(CC2)OCCN3S(=O)(=O)c2ccc(C(=O)OCc3ccccc3)cc2)cc1 [Compound C0042]	42.4	49.7	56.1																% DAMGO (0.1 μM) (mu opiate receptor (MOR); [5]): 98.9%; Concentration of FLNA-Binding Compound as Agonist 0.1 μM (mu opiate receptor (MOR); [6]): 167.1%; Concentration of FLNA-Binding Compound as Agonist 1 μM + BFNA (mu opiate receptor (MOR); [7]): 110.6%; % DAMGO + BFNA (mu opiate receptor (MOR); [8]): 666.3%; % DAMGO (1 μM) (mu opiate receptor (MOR); [9]): 119.2%; Concentration of FLNA-Binding Compound as Agonist 1 μM (mu opiate receptor (MOR); [10]): 260.9%
COc1ccc(S(=O)(=O)N2CCC3(CC2)NCCO3)cc1 [Compound C0026]	42.3	44.8	49																% DAMGO (0.1 μM) (mu opiate receptor (MOR); Series C-2, 0.1 μM compound, relative to DAMGO): 107.7%; MOR agonist activity, percent [35S]GTPγS binding at the stated compound concentration (mu opiate receptor (MOR); Series C-2, 0.1 μM compound, [35S]GTPγS binding to Gαo, striatal membranes): 207.2%; MOR agonist activity, percent [35S]GTPγS binding at the stated compound concentration (mu opiate receptor (MOR); Series C-2, 1 μM compound + 1 μM β-FNA): 21.2%; % DAMGO + BFNA (mu opiate receptor (MOR); Series C-2, 1 μM compound + β-FNA, relative to DAMGO + BFNA): 48.3%; % DAMGO (1 μM) (mu opiate receptor (MOR); Series C-2, 1 μM compound, relative to DAMGO): 105.6%; MOR agonist activity, percent [35S]GTPγS binding at the stated compound concentration (mu opiate receptor (MOR); Series C-2, 1 μM compound, [35S]GTPγS binding to Gαo, striatal membranes): 288.4%
COc1cc(C(=O)CC2c3c(cc4c(c3OC)OCO4)CC[N+]2(C)C)cc(OC)c1OC (stereo not drawn) [Compound B0037]				47.4	53	52.4	76.5	119.8	106.2	325.8	80.4	186.0							
COc1c2c(cc3c1C(CC(=O)c1ccc(C#N)cc1)[N+](C)(C)CC3)OCO2 (stereo not drawn) [Compound B0001]				37.1	48.8	54.3	77.4	128.2	28.0	43.1	74.9	202.3							
COc1c2c(cc3c1C(CC(=O)c1ccncc1)[N+](C)(C)CC3)OCO2 (stereo not drawn) [Compound B0005]				31.8	34.8	41.7	50.5	89.2	45.1	68.6	42.6	110.4							
CNc1ccc(S(=O)(=O)N2CCC3(CC2)OCCN3S(=O)(=O)c2ccc(NC)cc2)cc1 [Compound C0024]	37.9	46.4	50.4																% DAMGO (0.1 μM) (mu opiate receptor (MOR); [5]): 92.8%; Concentration of FLNA-Binding Compound as Agonist 0.1 μM (mu opiate receptor (MOR); [6]): 178.4%; Concentration of FLNA-Binding Compound as Agonist 1 μM + BFNA (mu opiate receptor (MOR); [7]): 59.3%; % DAMGO + BFNA (mu opiate receptor (MOR); [8]): 135.1%; % DAMGO (1 μM) (mu opiate receptor (MOR); [9]): 84.1%; Concentration of FLNA-Binding Compound as Agonist 1 μM (mu opiate receptor (MOR); [10]): 229.6%
CC1CN(CC(O)COc2ccccc2C(C)C)CC(C)O1 (stereo not drawn) [Compound A0029]	44.4	44.4	50.8										173.8	98.4	206.5	22.3	84.8	81.2	
COc1ccc(OCC(O)Cn2ccc3ccccc32)cc1 (stereo not drawn) [Compound A0077]	41.1	48.7	49.4										300.1	170.5	334.7	103.5	470.5	132.3	
CC1CCN(CC(O)COC2CC(C)CCC2C(C)C)CC1 (stereo not drawn) [Compound A0006]	37.9	43.5	47.5										170.0	113.8	190.9	18.2	68.7	82.9	
